For data set [1], the system named is B16-F10. Nature of the data set: Antimelanogenic activity in alpha-MSH-stimulated mouse B16F10 cells pretreated for 30 mins before alpha-MSH challenge measured after 48 hrs by ELISA reader. The class given is functional, cell-based.
Data set [2] relates to B16-F10. Nature of the data set: Cytotoxicity against mouse B16F10 cells up to 200 ug/mL. The data set is classed as cell-based.
The target of another data set is T1, Tyrosinase (Agaricus bisporus, UniProt O42713).
T1 sequence (O42713 whole entry): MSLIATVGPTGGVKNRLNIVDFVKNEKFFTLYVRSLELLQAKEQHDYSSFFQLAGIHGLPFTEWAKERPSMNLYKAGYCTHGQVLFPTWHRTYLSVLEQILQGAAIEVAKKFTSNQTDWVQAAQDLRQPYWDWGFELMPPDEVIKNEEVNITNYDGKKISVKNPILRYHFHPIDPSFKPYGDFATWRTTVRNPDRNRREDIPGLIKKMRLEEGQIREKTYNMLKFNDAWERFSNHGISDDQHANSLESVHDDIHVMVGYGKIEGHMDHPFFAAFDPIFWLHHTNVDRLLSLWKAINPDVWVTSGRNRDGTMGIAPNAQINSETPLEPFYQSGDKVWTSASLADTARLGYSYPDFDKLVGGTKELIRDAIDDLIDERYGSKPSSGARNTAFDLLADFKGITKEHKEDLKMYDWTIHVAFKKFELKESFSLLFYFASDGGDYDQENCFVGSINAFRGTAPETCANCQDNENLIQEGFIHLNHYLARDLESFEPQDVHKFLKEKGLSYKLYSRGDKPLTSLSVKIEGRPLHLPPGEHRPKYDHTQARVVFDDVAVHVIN

Data set [3] deals with B16-F10. Nature of the data set: Decrease in tyrosinase mRNA expression in alpha-MSH-stimulated mouse B16F10 cells after 48 hrs by RT-PCR analysis. The class given is functional, cell-based.

The structures appear in SMILES notation. Calls of active or inactive are those of the source. The rule behind the calls is not given here.

Description for Tyrosinase: Inhibition of mushroom tyrosinase using L-DOPA after 10 mins by ELISA reader

What is called IC50 is the concentration that inhibits the measured activity by half. A low value points to greater potency. `COc1cc([C@H]2c3c(cc(OC)c(O)c3OC)C[C@@H](CO)[C@H]2CO[C@@H]2O[C@H](CO)[C@@H](O)[C@H](O)[C@H]2O)cc(OC)c1O`: the result in the data set with B16-F10 [1] was Active. Also, the Activity entry with B16-F10 [2] is reported as “Non-toxic”. The compound also showed an IC50 at Tyrosinase of more than 1 mM.
For the compound `COc1cc([C@@H]2c3c(cc(OC)c(O)c3OC)C[C@H](CO)[C@@H]2CO[C@@H]2O[C@H](CO)[C@@H](O)[C@H](O)[C@H]2O)cc(OC)c1O`, in the data set on B16-F10 [1], the result was Active. The Activity result with B16-F10 [2] is on record as “Non-toxic”. This compound also returned an IC50 on Tyrosinase of more than 1 mM.
For `COc1cc([C@@H]2c3c(cc(OC)c(O)c3OC)C[C@@H](CO)[C@H]2CO[C@@H]2O[C@H](CO)[C@@H](O)[C@H](O)[C@H]2O)cc(OC)c1O`, in that order: “Active”, “Non-toxic” and more than 1 mM.
Turning to `COc1cc([C@H]2c3c(cc(OC)c(O)c3OC)C[C@H](CO)[C@@H]2CO[C@@H]2O[C@H](CO)[C@@H](O)[C@H](O)[C@H]2O)cc(OC)c1O`, the result in the data set on B16-F10 [1] was Active. The Activity result in the data set on B16-F10 [2] is given as “Non-toxic”. Also, at Tyrosinase, the IC50 was more than 1 mM.
The corresponding values for `COc1cc(/C=C/C(=O)NCCc2ccc(O)c(OC)c2)ccc1O` are “Active”, “Non-toxic” and more than 1 mM.
The corresponding values for `COc1cc2c(cc1OC)C(=O)N(C)CC2` are “Active”, “Non-toxic” and more than 1 mM.
Consider `CC1=CC(=O)CC(C)(C)[C@@H]1/C=C/[C@@H](C)O[C@@H]1O[C@H](CO)[C@@H](O)[C@H](O)[C@H]1O[C@@H]1O[C@@H](C)[C@H](O)[C@@H](O)[C@H]1O` [GUSANLUNGIONOSIDE A], for which the result with B16-F10 [1] and in the data set with B16-F10 [3] was Active. For the same compound, in the data set with B16-F10 [2], the Activity result was “Non-toxic”. The same compound came in with an IC50 against Tyrosinase of 0.15 mM.
As for `CC1=CC(=O)CC(C)(C)[C@H]1/C=C/[C@@H](C)O[C@@H]1O[C@H](CO)[C@@H](O)[C@H](O)[C@H]1O[C@@H]1O[C@@H](C)[C@H](O)[C@@H](O)[C@H]1O` [GUSANLUNGIONOSIDE B], the outcome with B16-F10 [1] and with B16-F10 [3] was Active. Moreover, the Activity result with B16-F10 [2] was “Non-toxic”. The compound also came in with a 50% inhibitory concentration (IC50) on Tyrosinase of 0.16 mM.
In the case of `CC1=CC(=O)CC(C)(C)[C@@H]1CC[C@@H](C)O[C@@H]1O[C@H](CO)[C@@H](O)[C@H](O)[C@H]1O[C@@H]1O[C@@H](C)[C@H](O)[C@@H](O)[C@H]1O` [GUSANLUNGIONOSIDE C], the outcome in the data set on B16-F10 [1] and in the data set with B16-F10 [3] was Active. For the same compound, the Activity result in the data set with B16-F10 [2] is reported as “Non-toxic”. At Tyrosinase, this compound showed an IC50 of 0.2 mM.
As to `CC1=CC(=O)CC(C)(C)[C@H]1CC[C@@H](C)O[C@@H]1O[C@H](CO)[C@@H](O)[C@H](O)[C@H]1O[C@@H]1O[C@@H](C)[C@H](O)[C@@H](O)[C@H]1O` [GUSANLUNGIONOSIDE D], the result in the data set with B16-F10 [1] and in the data set with B16-F10 [3] was Active. In addition, the Activity entry in the data set on B16-F10 [2] is given as “Non-toxic”. The same compound registered a concentration for half-maximal inhibition (IC50) on Tyrosinase of 0.19 mM.
Consider `O=C(/C=C/c1ccc(O)cc1)NCCc1ccc(O)cc1` [N-P-COUMAROYL TYRAMINE], for which the outcome with B16-F10 [1] was Active. Further, in the data set with B16-F10 [2], the Activity entry is “Non-toxic”. At Tyrosinase, this compound gave an IC50 of more than 1 mM.
For `OCc1ccc(O)cc1` [PARAHYDROXYBENZYL ALCOHOL], in that order: “Active”, “Non-toxic” and more than 1 mM.
The corresponding values for `COc1cc([C@H]2OC[C@H]3[C@@H]2CO[C@@H]3c2cc(OC)c(O)c(OC)c2)cc(OC)c1O` [SYRINGARESINOL] are “Active”, “Non-toxic” and more than 1 mM.
Consider `COc1cc2c(cc1O)C(=O)N(C)CC2` [THALIFOLINE], for which the outcome with B16-F10 [1] was Active. The Activity entry in the data set with B16-F10 [2] is recorded as “Non-toxic”. At Tyrosinase, the IC50 is more than 1 mM.

(Values after ChEMBL document CHEMBL1811762, “Gusanlungionosides A-D, potential tyrosinase inhibitors from Arcangelisia gusanlung” (J Nat Prod, 2011).)
